Literature values in US6472362B1, “Detergent compositions in tablet form” (Unilever Home & Personal Care USA division of Conopco, Inc., priority 1997, dated 2002).
Like-named read-outs stand apart in the source and are kept apart here.

[1] = other common materials, at 200° C. (so in the source)

| Structure (SMILES) | solubility in water (at 20° C.) | Water Solubility (g/100 g) (highly water-soluble materials, saturated solution in 100 grams of water at 20° C.) | Water Solubility (g/100 g) [1] |
| --- | --- | --- | --- |
| NC(N)=O [Urea] | exceeding 100 gms per 100 ml water | >100 g/100 g |  |
| O=P(O)(O)OP(=O)(O)OP(=O)(O)O [Sodium tripolyphosphate anhydrous] |  |  | 15 g/100 g |
| O=BO[O-].[Na+] [Sodium perborate anhydrous] |  |  | 3.7 g/100 g |
